In patent US9631001B2, “Peptide antagonists of the vasopressin-2 receptor” (COMMISSARIAT A L'ENERGIE ATOMIQUE ET AUX ENERGIES …, priority 2012, dated 2017):

What was measured:
Assay in all cases: IonWorks electrophysiological assay
Type in all cases: cell-based
Settings in all cases: 1 μM
[1] = molecular target: T1, Kir2.1 (Homo sapiens, UniProt P63252)
T1 construct: expressed in transfected cells
T1 sequence (P63252 1-427): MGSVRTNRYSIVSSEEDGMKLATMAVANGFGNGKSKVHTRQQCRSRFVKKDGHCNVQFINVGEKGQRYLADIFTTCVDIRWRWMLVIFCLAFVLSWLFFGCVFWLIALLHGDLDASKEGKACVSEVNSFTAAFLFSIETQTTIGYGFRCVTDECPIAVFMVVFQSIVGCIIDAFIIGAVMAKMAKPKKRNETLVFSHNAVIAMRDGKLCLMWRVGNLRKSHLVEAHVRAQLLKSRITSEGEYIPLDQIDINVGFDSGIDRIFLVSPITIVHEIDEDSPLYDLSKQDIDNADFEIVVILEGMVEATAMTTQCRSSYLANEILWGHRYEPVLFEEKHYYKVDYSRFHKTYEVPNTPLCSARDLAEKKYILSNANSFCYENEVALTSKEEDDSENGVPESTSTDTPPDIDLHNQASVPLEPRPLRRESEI
Experimental: (§1) The stock solution was transferred to a master plate and into assay plates where 2 μl per well of the solution were placed. On the day of the assay, 198 μl of external solution containing the appropriate DMSO concentration was added and mixed thoroughly. This provided a 1:100 dilution. A further 1:3 dilution occurred upon addition to the cells in the IonWorks, giving a 1:300 dilution in total. On each assay plate, at least 8 wells were reserved for vehicle control (0.3% DMSO) and at least 8 wells for each positive control specific to the cell line tested. The positive controls were tested at a maximal blocking and an approximate IC50 concentration. The compounds used for positive controls: Nav1.5 100 μM and 5 mM Lidocaine, Kv4.3/KChIP2 20 μM and 500 μM Quinidine, Cav1.2 1 μM and 100 μM Nitrendipine, Kv1.5 300 μM and 10 mM 4-AP, KCNQ1/minK 10 μM and 100 μM Chromanol 293B, hERG 0.1 μM and 1 μM Cisapride, HCN4 50 μM and 3 mM Cesium, Kir2.1 20 μM and 500 μM Barium.

[2] = molecular target: T2, Kv4.3/KChIP2 (Homo sapiens, UniProt Q9UK17)
T2 construct: expressed in transfected cells
T2 sequence (Q9UK17 1-655): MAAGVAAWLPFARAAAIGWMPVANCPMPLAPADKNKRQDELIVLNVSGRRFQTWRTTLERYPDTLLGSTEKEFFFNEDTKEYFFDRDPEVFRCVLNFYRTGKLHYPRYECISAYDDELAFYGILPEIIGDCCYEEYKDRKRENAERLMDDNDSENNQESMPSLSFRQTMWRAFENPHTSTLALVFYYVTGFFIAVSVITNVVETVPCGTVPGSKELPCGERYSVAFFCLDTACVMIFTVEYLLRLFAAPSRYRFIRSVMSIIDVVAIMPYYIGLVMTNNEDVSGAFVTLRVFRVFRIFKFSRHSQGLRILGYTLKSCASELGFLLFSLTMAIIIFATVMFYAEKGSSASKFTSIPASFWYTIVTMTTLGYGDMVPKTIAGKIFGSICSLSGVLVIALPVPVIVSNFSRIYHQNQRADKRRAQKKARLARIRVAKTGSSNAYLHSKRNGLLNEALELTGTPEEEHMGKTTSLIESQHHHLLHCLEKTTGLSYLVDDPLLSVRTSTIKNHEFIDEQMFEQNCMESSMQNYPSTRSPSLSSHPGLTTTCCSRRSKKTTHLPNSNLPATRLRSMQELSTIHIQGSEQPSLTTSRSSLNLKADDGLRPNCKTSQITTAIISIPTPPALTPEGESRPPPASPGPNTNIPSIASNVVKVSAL
T2 sequence (Q9NS61 1-270 partner): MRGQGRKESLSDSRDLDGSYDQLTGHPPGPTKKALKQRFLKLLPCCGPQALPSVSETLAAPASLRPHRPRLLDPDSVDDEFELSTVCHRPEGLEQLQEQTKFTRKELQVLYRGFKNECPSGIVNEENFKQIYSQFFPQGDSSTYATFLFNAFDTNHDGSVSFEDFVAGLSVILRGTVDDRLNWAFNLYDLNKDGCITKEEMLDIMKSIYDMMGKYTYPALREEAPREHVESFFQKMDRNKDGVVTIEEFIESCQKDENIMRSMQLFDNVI
Experimental: as §1

[3] = molecular target: T3, HCN4 (Homo sapiens, UniProt Q9Y3Q4)
T3 construct: expressed in transfected cells
T3 sequence (Q9Y3Q4 1-1203): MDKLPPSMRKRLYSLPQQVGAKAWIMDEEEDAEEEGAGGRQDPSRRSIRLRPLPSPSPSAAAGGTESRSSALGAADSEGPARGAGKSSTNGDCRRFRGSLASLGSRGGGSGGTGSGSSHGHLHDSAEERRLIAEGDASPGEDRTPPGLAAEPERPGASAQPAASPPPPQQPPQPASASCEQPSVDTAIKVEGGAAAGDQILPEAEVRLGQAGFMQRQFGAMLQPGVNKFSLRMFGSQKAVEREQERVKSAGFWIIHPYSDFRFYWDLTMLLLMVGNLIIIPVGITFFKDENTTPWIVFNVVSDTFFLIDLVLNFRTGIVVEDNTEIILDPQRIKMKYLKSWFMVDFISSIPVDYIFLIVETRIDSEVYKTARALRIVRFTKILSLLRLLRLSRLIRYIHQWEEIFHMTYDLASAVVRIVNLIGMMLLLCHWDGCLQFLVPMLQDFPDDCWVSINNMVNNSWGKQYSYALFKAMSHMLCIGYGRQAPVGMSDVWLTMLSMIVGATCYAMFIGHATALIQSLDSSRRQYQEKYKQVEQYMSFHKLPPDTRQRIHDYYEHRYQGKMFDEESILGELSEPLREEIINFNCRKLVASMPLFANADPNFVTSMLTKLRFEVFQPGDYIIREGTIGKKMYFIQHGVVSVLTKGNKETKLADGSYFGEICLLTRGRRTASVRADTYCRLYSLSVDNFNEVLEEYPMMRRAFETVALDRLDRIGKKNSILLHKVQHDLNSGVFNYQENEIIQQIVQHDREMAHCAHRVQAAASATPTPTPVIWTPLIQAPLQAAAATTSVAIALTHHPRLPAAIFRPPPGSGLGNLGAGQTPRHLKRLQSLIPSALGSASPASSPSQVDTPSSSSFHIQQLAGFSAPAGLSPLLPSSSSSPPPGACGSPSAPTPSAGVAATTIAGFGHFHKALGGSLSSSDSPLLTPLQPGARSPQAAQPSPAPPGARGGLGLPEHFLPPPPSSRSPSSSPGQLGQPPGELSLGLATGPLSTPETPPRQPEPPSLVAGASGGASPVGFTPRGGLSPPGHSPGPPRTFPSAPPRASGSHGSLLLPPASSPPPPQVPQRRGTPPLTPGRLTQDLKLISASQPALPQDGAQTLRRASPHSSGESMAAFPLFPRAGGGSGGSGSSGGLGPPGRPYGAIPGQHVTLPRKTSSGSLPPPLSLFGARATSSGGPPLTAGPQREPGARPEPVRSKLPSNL
Experimental: as §1

How did the “inhibition of Kir2.1” value [1] turn out when `CC[C@H](C)[C@@H]1NC(=O)[C@H]([C@@H](C)O)NC(=O)[C@H](CO)NC(=O)[C@H](Cc2ccccc2)NC(=O)[C@H](CCCNC(=N)N)NC(=O)[C@H](CC(N)=O)NC(=O)[C@H](C)NC(=O)[C@H](CC(N)=O)NC(=O)CNC(=O)[C@H](CCCCN)NC(=O)[C@@H]2CSSC[C@@H]3NC(=O)[C@@H]4CCCN4C(=O)CNC(=O)[C@@H]4CCCN4C(=O)[C@H](CCCCN)NC(=O)[C@H](C(C)C)NC(=O)[C@@H]4CCCN4C(=O)[C@H](CC(C)C)NC(=O)[C@H](CC(N)=O)NC(=O)[C@@H](NC(=O)[C@H](Cc4ccccc4)NC(=O)[C@H](CO)NC(=O)[C@@H]4CCCN4C(=O)[C@@H](N)CCCNC(=N)N)CSSC[C@@H](C(=O)N[C@H](C(=O)NCC(=O)O)C(C)C)NC(=O)[C@H]([C@@H](C)O)NC(=O)[C@H](CCCNC(=N)N)NC(=O)[C@H](CCCNC(=N)N)NC(=O)[C@H](CSSC[C@H](NC(=O)[C@H](CCCCN)NC(=O)[C@H](CC(N)=O)NC(=O)[C@H]([C@@H](C)O)NC(=O)[C@H](CCCCN)NC(=O)[C@H](CCC(N)=O)NC(=O)[C@H](CO)NC(=O)[C@H](Cc4ccc(O)cc4)NC(=O)[C@H](Cc4ccc(O)cc4)NC(=O)[C@H](Cc4ccccc4)NC(=O)[C@H](C)NC(=O)[C@H](CO)NC(=O)[C@H](Cc4ccccc4)NC(=O)[C@H](Cc4ccccc4)NC(=O)CNC(=O)[C@H](CC(N)=O)NC3=O)C(=O)N[C@@H](Cc3c[nH]cn3)C(=O)N[C@@H](CO)C(=O)N[C@@H](Cc3ccccc3)C(=O)N[C@@H]([C@@H](C)O)C(=O)N[C@@H](Cc3ccc(O)cc3)C(=O)NCC(=O)NCC(=O)N2)NC(=O)[C@H](CCCCN)NC(=O)[C@H](CCC(=O)O)NC1=O` [U-Da2a] was run?
The value was “did not appear to exhibit significant inhibition”.

What about the “inhibition of Kv4.3/KChIP2” value [2] of the same compound?
The value was “did not appear to exhibit significant inhibition”.

And the “inhibition of HCN4” value [3]?
Its value is “did not appear to exhibit significant inhibition”.
